Structures are written as SMILES.

The test system of one assay is CD34^+CD38^− cells. As to the kind of experiment: Expansion of CD34+CD38− cells from human cord blood-derived CD34+ cells (Example 2). Conditions: 1 μg/mL compound, 50 ng/mL SCF, StemSpan SFEM, 7 days; based on number of CD34+CD38− cells in the absence of compound. The format is cell-based. How it is done:
The human cord blood-derived CD34^+ cells collected or purchased in Example 1 were plated on a 24-well plate (TPP) (10000 cells/1/mL/well). As the culture medium, StemSpan SFEM (Stemcell Technologies) containing 50 ng/mL SCF (Peprotech) was used, and Compounds No. 1 to 133 dissolved in dimethyl sulfoxide were added in an amount of 0.1% (v/v) to a final concentration of 1 μg/mL.
After the cells were incubated in liquid culture at 37° C. for 7 days in a CO2 incubator (5% CO2), the number of viable cells was counted by trypan blue assay. The number of CD34^+CD38^− cells was calculated as follows. After the incubation, the cells in the liquid culture was stained with a CD34 antibody (APC, Becton, Dickinson and Company) and a CD38 antibody (PE, Becton, Dickinson and Company), then washed with PBS(−) containing 2% (v/v) FBS and stained with propidium iodide (Sigma-Aldrich Japan) added to a final concentration of 5 μg/mL. The stained cells were analyzed with a flow cytometer JSAN (Bay Bioscience) to determined the proportion of CD34^+CD38^− cells, which was multiplied by the number of viable cells to calculate the number of CD34^+CD38^− cells.
The expansion efficiencies in the presence of 1 μg/mL of compounds based on the number of CD34^+CD38^− cells in the absence of them are shown in Tables 2 and 3 on a scale of A for expansion efficiencies of 10 or greater, B for expansion efficiencies of at least 5 and less than 10, and C for expansion efficiencies of at least 3 and less than 5.
For `C/C(=N\NC(=O)c1ccc(C(=O)NCc2cn(C)cn2)s1)c1csc(-c2ccc(C(F)(F)F)cc2)c1O` [compound 131], the Expansion efficiency entry is given as “A (A for expansion efficiencies of 10 or greater)”.

The same assay, now with this note: Homo sapiens, 168 h, 1 μg/mL compound, 50 ng/mL SCF, StemSpan SFEM, 7 days; based on number of CD34+CD38− cells in the absence of compound; read-out: Expansion efficiency.
With `COc1ccc(-c2scc(/C(C)=N/NC(=O)c3ccc(C(=O)NCc4ccccc4C(N)=O)s3)c2O)cc1` [compound 105], the fold induction at 1 µg/mL lay within 5 to 10.

Turning to `CCCCCNC(=O)c1ccc(C(=O)N/N=C(\C)c2csc(-c3ccc(Cl)c(Cl)c3)c2O)s1` [compound 69], the fold induction at 1 µg/mL was in the range of 3 to 5. Take `C/C(=N\NC(=O)c1ccc(C(=O)NCc2cccc(C(N)=O)c2)s1)c1csc(-c2ccc(C(F)(F)F)cc2)c1O` [compound 95]: the fold induction at 1 µg/mL was not below 10. Consider `CNC(=O)c1ccc(CNC(=O)c2ccc(C(=O)N/N=C(\C)c3csc(-c4ccc(Cl)c(Cl)c4)c3O)s2)cc1` [compound 106], for which the fold induction at 1 µg/mL was not below 10. Turning to `C/C(=N\NC(=O)c1ccc(C(=O)NCc2cc[n+]([O-])cc2)s1)c1csc(-c2ccc(Cl)cc2)c1O` [compound 18], the fold induction at 1 µg/mL was not below 10. As to `C/C(=N\NC(=O)c1ccc(C(=O)NCc2ccnnc2)s1)c1csc(-c2ccc(Cl)c(Cl)c2)c1O` [compound 43], the fold induction at 1 µg/mL was not below 10.

On to `C/C(=N\NC(=O)c1ccc(C(=O)NCc2cccs2)s1)c1csc(-c2cccc(Cl)c2)c1O` [compound 30], for which the fold induction at 1 µg/mL fell in the range of 5 to 10. As for `C/C(=N\NC(=O)c1ccc(C(=O)NC(C)C)s1)c1csc(-c2cccc(Cl)c2)c1O` [compound 78], the fold induction at 1 µg/mL was in the range of 5 to 10. The same measure, in the same setting: in the case of `CC(=O)Nc1ccc(C(C)NC(=O)c2ccc(C(=O)N/N=C(\C)c3csc(-c4ccc(C(F)(F)F)cc4)c3O)s2)cc1` (stereo not shown) [compound 123] it was not below 10; in that of `CCCNC(=O)c1ccc(C(=O)N/N=C(\C)c2csc(-c3ccc(Cl)cc3)c2O)s1` [compound 31], not below 10; in that of `CNC(=O)c1ccc(C(=O)N/N=C(\C)c2csc(-c3ccc(Cl)cc3)c2O)s1` [compound 11], not below 10.

Regarding `C/C(=N\NC(=O)c1ccc(C(=O)NCc2ccc(C(N)=O)cc2)s1)c1csc(-c2ccc(C(C)(C)C)cc2)c1O` [compound 86], the fold induction at 1 µg/mL was not below 10. Regarding `C/C(=N\NC(=O)c1ccc(C(=O)NCc2c(C)nn(C)c2C)s1)c1csc(-c2ccc(Cl)c(Cl)c2)c1O` [compound 41], the fold induction at 1 µg/mL was 5 to 10.

As for `C/C(=N\NC(=O)c1ccc(C(=O)NCc2ccccc2C(N)=O)s1)c1csc(-c2ccc(C(F)(F)F)cc2)c1O` [compound 102], the fold induction at 1 µg/mL is not below 10. Still for that read-out and setting: for `C/C(=N\NC(=O)c1ccc(C(=O)NCCN2CCCC2)s1)c1csc(-c2ccc(Cl)c(Cl)c2)c1O` [compound 67] the value was 3 to 5; for `COCCNC(=O)c1ccc(C(=O)N/N=C(\C)c2csc(-c3ccc(Cl)c(Cl)c3)c2O)s1` [compound 22], 5 to 10. Consider `C/C(=N\NC(=O)c1ccc(C(=O)NCc2ccncc2)s1)c1csc(-c2ccc(Cl)c(Cl)c2)c1O` [compound 5], for which the fold induction at 1 µg/mL was not below 10. In the case of `CNC(=O)c1ccc(CNC(=O)c2ccc(C(=O)N/N=C(\C)c3csc(-c4ccc(C(C)(C)C)cc4)c3O)s2)cc1` [compound 107], the fold induction at 1 µg/mL is not below 10. Turning to `C/C(=N\NC(=O)c1ccc(C(=O)NCc2ccno2)s1)c1csc(-c2ccc(Cl)c(Cl)c2)c1O` [compound 40], the fold induction at 1 µg/mL lay in the range of 5 to 10. `CCN(C)C(=O)c1ccc(C(=O)N/N=C(\C)c2csc(-c3ccc(Cl)c(Cl)c3)c2O)s1` [compound 81]: the fold induction at 1 µg/mL lay within 3 to 5. For the compound `C/C(=N\NC(=O)c1ccc(C(=O)NCc2cnc(C)cn2)s1)c1csc(-c2ccc(OC(F)(F)F)cc2)c1O` [compound 14], the fold induction at 1 µg/mL was not below 10. For `C/C(=N\NC(=O)c1ccc(C(=O)NCc2cnccn2)s1)c1csc(-c2ccc(Cl)c(Cl)c2)c1O` [compound 8], the fold induction at 1 µg/mL is not below 10. Consider `COc1ccc(-c2scc(/C(C)=N/NC(=O)c3ccc(C(=O)NCc4cn(C)cn4)s3)c2O)cc1` [compound 133], for which the fold induction at 1 µg/mL was not below 10. `CNC(=O)c1ccc(CNC(=O)c2ccc(C(=O)N/N=C(\C)c3csc(-c4ccc(OC(F)(F)F)cc4)c3O)s2)cc1` [compound 111]: the fold induction at 1 µg/mL is not below 10. As for `C/C(=N\NC(=O)c1ccc(C(=O)NC(C)c2ccc(C(N)=O)cc2)s1)c1csc(-c2ccc(C(C)(C)C)cc2)c1O` (stereo not shown) [compound 114], the fold induction at 1 µg/mL was not below 10. The same measure, in the same setting: for `C/C(=N\NC(=O)c1ccc(C(=O)NCCCN2CCOCC2)s1)c1csc(-c2ccc(Br)cc2)c1O` [compound 33] the value was 5 to 10; for `C/C(=N\NC(=O)c1ccc(C(=O)NCc2ccc(C(N)=O)cc2)s1)c1csc(-c2ccc(C(F)(F)F)cc2)c1O` [compound 88], not below 10. `C/C(=N\NC(=O)c1ccc(C(=O)NCc2cncn2C)s1)c1csc(-c2ccc(Cl)c(Cl)c2)c1O` [compound 51]: the fold induction at 1 µg/mL was 5 to 10. Regarding `COc1ccc(-c2scc(/C(C)=N/NC(=O)c3ccc(C(=O)NC(C)c4ccc(C(N)=O)cc4)s3)c2O)cc1` (stereo not shown) [compound 119], the fold induction at 1 µg/mL is not below 10. In the case of `C/C(=N\NC(=O)c1ccc(C(=O)NCc2ccccc2C(N)=O)s1)c1csc(-c2ccc(Cl)cc2)c1O` [compound 103], the fold induction at 1 µg/mL is not below 10. For the compound `C/C(=N\NC(=O)c1ccc(C(=O)NCc2ccccc2C(N)=O)s1)c1csc(-c2ccc(Cl)c(Cl)c2)c1O` [compound 99], the fold induction at 1 µg/mL was not below 10. Same read-out and setting: in the case of `C/C(=N\NC(=O)c1ccc(C(=O)NCc2cccc(C(N)=O)c2)s1)c1csc(-c2ccc(Cl)cc2)c1O` [compound 96] it was not below 10; in that of `C/C(=N\NC(=O)c1ccc(C(=O)NCc2cccnn2)s1)c1csc(-c2ccc(Cl)c(Cl)c2)c1O` [compound 44], 5 to 10; in that of `CCN(CC)C(=O)c1ccc(C(=O)N/N=C(\C)c2csc(-c3ccc(Cl)cc3)c2O)s1` [compound 71], 5 to 10. Consider `C/C(=N\NC(=O)c1ccc(C(=O)NCc2ccc(C(=O)O)cc2)s1)c1csc(-c2ccc(Cl)c(Cl)c2)c1O` [compound 83], for which the fold induction at 1 µg/mL was 3 to 5. For `C/C(=N\NC(=O)c1ccc(C(=O)N(C)Cc2ccccc2)s1)c1csc(-c2ccc(Cl)c(Cl)c2)c1O` [compound 26], the fold induction at 1 µg/mL is not below 10.

For `C/C(=N\NC(=O)c1ccc(C(=O)NCc2cc[n+]([O-])cc2)s1)c1csc(-c2ccc(Cl)c(Cl)c2)c1O` [compound 3], the fold induction at 1 µg/mL is not below 10. Turning to `C/C(=N\NC(=O)c1ccc(C(=O)NCc2cc(C)n(C)n2)s1)c1csc(-c2ccc(Br)cc2)c1O` [compound 127], the fold induction at 1 µg/mL is not below 10.

On to `C/C(=N\NC(=O)c1ccc(C(=O)NCc2ncccn2)s1)c1csc(-c2ccc(Cl)c(Cl)c2)c1O` [compound 36], for which the fold induction at 1 µg/mL was not below 10. With `C/C(=N\NC(=O)c1ccc(C(=O)NCc2cc(C)n(C)n2)s1)c1csc(-c2ccc(OC(F)(F)F)cc2)c1O` [compound 128], the fold induction at 1 µg/mL is not below 10. In the case of `C/C(=N\NC(=O)c1ccc(C(=O)NCc2cc(C)on2)s1)c1csc(-c2ccc(C(F)(F)F)cc2)c1O` [compound 46], the fold induction at 1 µg/mL lay within 5 to 10. For the compound `C/C(=N\NC(=O)c1ccc(C(=O)NCc2cn(C)cn2)s1)c1csc(-c2ccc(C(F)(F)F)cc2)c1O` [compound 55], the fold induction at 1 µg/mL lay in the range of 5 to 10.

On to `C/C(=N\NC(=O)c1ccc(C(=O)NC2CCCC2)s1)c1csc(-c2ccc(Cl)c(Cl)c2)c1O` [compound 63], for which the fold induction at 1 µg/mL was in the range of 3 to 5.

With `C/C(=N\NC(=O)c1ccc(C(=O)NCCCCO)s1)c1csc(-c2ccc(Cl)c(Cl)c2)c1O` [compound 73], the fold induction at 1 µg/mL is 5 to 10. For the compound `C/C(=N\NC(=O)c1ccc(C(=O)NCCN(C)C)s1)c1csc(-c2ccc(Cl)c(Cl)c2)c1O` [compound 66], the fold induction at 1 µg/mL was 3 to 5. Take `C/C(=N\NC(=O)c1ccc(C(=O)NCc2ccccc2C(N)=O)s1)c1csc(-c2ccc(OC(F)(F)F)cc2)c1O` [compound 104]: the fold induction at 1 µg/mL was not below 10. With `C/C(=N\NC(=O)c1ccc(C(=O)NCCO)s1)c1csc(-c2ccc(Cl)cc2)c1O` [compound 10], the fold induction at 1 µg/mL was not below 10. As to `C/C(=N\NC(=O)c1ccc(C(=O)NC(C)c2ccc(C(N)=O)cc2)s1)c1csc(-c2ccc(Cl)c(Cl)c2)c1O` (stereo not shown) [compound 113], the fold induction at 1 µg/mL was not below 10.

For the compound `C/C(=N\NC(=O)c1ccc(C(=O)NCc2cc(C)n(C)n2)s1)c1csc(-c2ccc(Cl)cc2)c1O` [compound 19], the fold induction at 1 µg/mL was not below 10. Consider `C/C(=N\NC(=O)c1ccc(C(=O)NCc2cn(C)cn2)s1)c1csc(-c2ccc(OC(F)(F)F)cc2)c1O` [compound 82], for which the fold induction at 1 µg/mL is 3 to 5. With `CNC(=O)c1ccc(CNC(=O)c2ccc(C(=O)N/N=C(\C)c3csc(-c4ccc(C(F)(F)F)cc4)c3O)s2)cc1` [compound 109], the fold induction at 1 µg/mL is not below 10.

For the origin of these results see patent US9527828B2, “Method for expanding hematopoietic stem cells using heterocyclic compound” (Nissan Chemical Industries, Ltd., priority 2007, dated 2016).
